Data on 17 molecules can be found in US8618158B2, “Therapeutic agents” (Cancer Research Technology Limited, priority 2008, dated 2013).

In test [1] the test system is p53-dependent transcriptional activity. Briefly: Luciferase based p53-dependent reporter gene assay. The class given is cell-based.
The subject of test [2] is SJSA-1 cell line. Briefly: Western blot of MDM2, p53 and p21 levels in SJSA-1 cells. The class given is cell-based. The note with it: for levels of p53, p21 and MDM2 protein (FIG. 1): MDM2 amplified SJSA-1 cells, 1-20 μM. Here is the method:
The medium was then aspirated and the dishes were washed with 3 mL of cold PBS.
The samples were then loaded onto a precast 4-20% gradient polyacrylamide Tris-Glycine gels (15 wells, 1.5 mm thickness, Invitrogen Life Technologies), along with a pre-stained marker protein (SeeBlue, Invitrogen). The Gels were processed in Novex XCell (Invitrogen) at 180V and blotted onto a High Bond C membrane (Amersham Life Science) overnight at 30V.
The membrane was then blocked for one hour at room temperature in TBS-Tween containing 5% non-fat milk (TBST-M) followed by incubation with primary antibodies for MDM2 (MDM2-Ab 1, 1:500, Oncogene), p53 (p53-D07, 1:1000, Novacastra), p21 (p21 Ab1, 1:100, Oncogene) and Actin (Actin AC40, 1:1000, Sigma) in PBST-M for 1 hour.
The membrane was then washed three times in TBST (15 minutes per wash) and then incubated for an additional 1 hour with a anti mouse or a rabbit horseradish peroxidase (HRP) secondary antibody (Dako, 1:1000) in PBST-M followed by a final wash consisting of six washes with TBST at 5 minutes per wash.

Test [3] deals with SJSA-1 cell line. The test can be described thus: Western blot of PARP and caspase-3 cleavage in SJSA-1 cells. It is filed as cell-based. The conditions noted are these: SJSA-1, after 48 hours of treatment, in comparison to nutlin-3.
In test [4] the target is MDM2-p53 interaction (Homo sapiens (Human), UniProt Q00987). Briefly: MDM2-p53 ELISA binding assay. Here is the method:
Streptavidin-coated 96-well plates are used to immobilise a biotin-tagged IP3 p53-derived peptide ([…]). This is a peptide analogue derived from the p53 binding site for MDM2 ([…]). […] Aliquots of MDM2 generated by in vitro translation are pre-incubated for 20 minutes at room temperature (i.e. 20-25° C.) with test compounds and controls, before transfer into the IP3-coated 96-well plates.
3-(4-Chloro-phenyl)-3-(4-hydroxy-3,5-dimethoxy-benzyloxy)-2-propyl-2,3-dihydro-isoindolin-1-one (NU8231) is currently included as a standard “lead compound” positive control. […] The AP peptide is included as a positive control for biological evaluation of the isoindolinones in the cell free binding assays.
All compounds are dissolved in DMSO and tested at a range of concentrations in the presence of a fixed final concentration of 5% DMSO.

Test [5] has as its system wild-type p53 HCT116 cells. Briefly: Growth inhibition in p53 wild-type HCT116 cells. It is filed as cell-based.
Test [6] has as its system p53−/− HCT116 cells. Briefly: Growth inhibition in p53−/− HCT116 cells. The class given is cell-based. The note with it: comparison of p53 wt and p53−/− HCT116.
[7] abbreviates: Table 5, read-out: MDM2-p53 ELISA IC50.
Where [8] appears, read: Table 2, mean ± SE of n = 3 unless indicated, read-out: ELISA IC50.
The mark [9] stands for this setting: Table 1, mean ± SE of n = 3 unless indicated, read-out: ELISA IC50.

Where two headings read alike, the source gives them in different places.

MDM2-p53 interaction, sequence (Q00987 whole entry): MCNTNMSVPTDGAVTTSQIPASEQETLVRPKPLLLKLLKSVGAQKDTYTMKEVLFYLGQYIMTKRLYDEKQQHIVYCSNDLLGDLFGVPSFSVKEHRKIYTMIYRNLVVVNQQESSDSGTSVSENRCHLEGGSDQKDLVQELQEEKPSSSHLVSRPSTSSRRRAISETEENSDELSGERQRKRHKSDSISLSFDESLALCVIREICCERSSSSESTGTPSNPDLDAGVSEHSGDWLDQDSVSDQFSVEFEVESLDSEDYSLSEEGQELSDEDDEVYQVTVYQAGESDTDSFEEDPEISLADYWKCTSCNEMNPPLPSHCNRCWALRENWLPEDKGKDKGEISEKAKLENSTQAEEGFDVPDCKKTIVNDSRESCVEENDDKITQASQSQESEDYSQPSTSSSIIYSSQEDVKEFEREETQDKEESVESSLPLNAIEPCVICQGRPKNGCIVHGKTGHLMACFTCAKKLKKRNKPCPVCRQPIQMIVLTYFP

Take `O=C1c2ccccc2C(O[C@H]2C=C[C@@H](O)C2)(c2ccc(Cl)cc2)N1Cc1ccc([N+](=O)[O-])cc1` (stereo in doubt) [NU8297, 3-(4-Chlorophenyl)-3-(4-hydroxycyclopent-2-enyloxy)-2-(4-nitrobenzyl) isoindolin-1-one]: the “p53 dependent transcriptional activity (FIG. 3)” value in test [1] is “activation of p53 dependent transcriptional activity”. The “levels of p53, p21 and MDM2 protein (FIG. 1)” value (“levels of p53” below) in test [2] is “did not show any evidence of activity”.
For the molecule `O=C1c2ccccc2C(O[C@H]2CC[C@@H](O)C2)(c2ccc(Cl)cc2)N1Cc1ccc([N+](=O)[O-])cc1` (stereo partly drawn) [NU8296, 3-(4-chlorophenyl)-3-((1S,3R)-3-hydroxycyclopentyloxy)-2-(4-nitrobenzyl)isoindolin-1-one], the “PARP and caspase-3 cleavage (FIG. 4)” value in test [3] is given as “comparable to those observed with nutlin-3”. For the same molecule, the “p53 dependent transcriptional activity (FIG. 3)” value in test [1] was “activation of p53 dependent transcriptional activity”.
In the case of `O=C1c2ccccc2C(O)(c2ccc(Cl)cc2)N1Cc1cccc2ccccc12` (stereo not drawn) [NCL-00016046, 3-(4-chlorophenyl)-3-hydroxy-2-naphthalen-1-ylmethyl-2,3-dihydroisoindol-1-one], the half-maximal inhibitory concentration (IC50) in test [4] (setting [7]) was found to be 96 µM.
For the molecule `O=C1c2ccccc2C(OCCCCO)(c2ccc(Br)cc2)N1Cc1ccc([N+](=O)[O-])cc1` (stereo not drawn) [NU8390, 3-(4-bromophenyl)-3-(4-hydroxybutoxy)-2-(4-nitrobenzyl)isoindolin-1-one], the half-inhibitory concentration (IC50) in test [4] (Table 3, read-out: MDM2 IC50) was determined as 0.57 ± 0.059 µM.
`O=C1c2ccccc2C(OCCCO)(c2ccc(Br)cc2)N1Cc1ccc([N+](=O)[O-])cc1` (stereo not drawn) [NU8392, 3-(4-bromophenyl)-3-(3-hydroxypropoxy)-2-(4-nitrobenzyl)isoindolin-1-one]: the half-maximal inhibitory concentration (IC50) in test [4] (Table 3, read-out: MDM2 IC50) came out at 1.4 ± 0.16 µM.
With `CC(C)(CO)COC1(c2ccc(Cl)cc2)c2ccccc2C(=O)N1Cc1ccc([N+](=O)[O-])cc1` (stereo not drawn) [NU8353, 3-(4-Chloro-phenyl)-3-(3-hydroxy-2,2-dimethyl-propoxy)-2-(4-nitro-benzyl)-2,3-dihydro-isoindol-1-one], in test [4] (setting [8]), the IC50 was determined as 0.395 ± 0.075 µM.
As to `O=C1c2ccccc2C(O[C@H]2C=C[C@@H](O)C2)(c2ccc(Cl)cc2)N1Cc1ccccc1` (stereo in doubt) [NU8298, 2-Benzyl-3-(4-chlorophenyl)-3-(4-hydroxycyclopent-2-enyloxy) isoindolin-1-one], the IC50 in test [4] (setting [9]) is 2.3 ± 0.3 µM.
On the same count and under the same terms, to `O=C1c2ccccc2C(OCCCCO)(c2ccc(Cl)cc2)N1CCc1ccc([N+](=O)[O-])cc1` (stereo not drawn) [NU8362, 3-(4-Chlorophenyl)-3-(4-hydroxybutoxy)-2-[2-(4-nitrophenyl)ethyl]-2,3-dihydroisoindol-1-one] belongs 3.2 ± 1 µM.
As to `O=C1c2ccccc2C(O)(c2ccc(F)cc2)N1Cc1ccc([N+](=O)[O-])cc1` (stereo not drawn) [NCL-00016657, 3-(4-fluorophenyl)-3-hydroxy-2-(4-nitrobenzyl)-2,3-dihydroisoindol-1-one], in test [4] (setting [7]), the IC50 is 9.46 µM.
For `Cc1ccc(CN2C(=O)c3ccccc3C2(O[C@H]2C=C[C@@H](O)C2)c2ccc(Cl)cc2)cc1` (stereo in doubt) [NU8295, 3-(4-Chlorophenyl)-3-(4-hydroxycyclopent-2-enyloxy)-2-(4-methylbenzyl) isoindolin-1-one], in test [4] (setting [9]), the half-maximal inhibitory concentration (IC50) worked out at 1.4 ± 0.4 µM. Besides, the “levels of p53” value in test [2] is “induction of increased levels of p53, p21 and MDM2 protein”.
As to `O=C1c2ccccc2C(OC2C=C[C@@H](O)C2)(c2ccc(Cl)cc2)N1Cc1ccc(Cl)cc1` (stereo in doubt) [NU8293, 3-(4-Chlorophenyl)-3-(4-hydroxycyclopent-2-enyloxy)-2-(4-chlorobenzyl) isoindolin-1-one], the “p53 dependent transcriptional activity (FIG. 3)” value in test [1] was “activation of p53 dependent transcriptional activity”. Moreover, in test [4] (setting [9]), the concentration for half-maximal inhibition (IC50) worked out at 1.5 ± 0.3 µM. Also, the “levels of p53” value in test [2] is “induction of increased levels of p53, p21 and MDM2 protein”.
For `O=C1c2ccccc2C(OCC2(CO)CC2)(c2ccc(Cl)cc2)N1Cc1ccc(I)cc1` (stereo not drawn) [NCL-00014529, 3-(4-chlorophenyl)-3-(1-hydroxymethylcyclopropylmethoxy)-2-(4-iodobenzyl)-2,3-dihydroisoindol-1-one], the IC50 in test [4] (setting [7]) was 1.5 µM.
As for `COc1ccc(C2=NC(c3ccc(Cl)cc3)C(c3ccc(Cl)cc3)N2C(=O)N2CCNC(=O)C2)c(OC(C)C)c1` (racemic) [Nutlin-3, (±)-4-[4,5-bis-(4-Chlorophenyl)-2-(2-isopropoxy-4-methoxyphenyl)-4,5-dihydroimidazole-1-carbonyl]-piperazin-2-one], the “growth inhibition (FIGS. 5 and 6)” value in test [5] was “growth inhibitory”. The “growth inhibition p53 wt versus p53−/− HCT116 (FIGS. 5 and 6)” value in test [6] is given as “greater growth inhibition in the p53 wt HCT116 cell line than the p53−/− HCT116 cells”. Moreover, the “MDM2, p53 and p21 levels by Western blotting (FIG. 12)” value in test [2] (SJSA-1 cells, 1 to 20 μM) is “strong dose dependent increase in MDM2, p53 and p21 levels”.
Regarding `O=C1c2ccccc2C(OC/C=C\CO)(c2ccc(Cl)cc2)N1Cc1ccc([N+](=O)[O-])cc1` (stereo not drawn) [NU8350, 3-(4-Chlorophenyl)-3-(4-hydroxybut-2-enyloxy)-2-(4-nitrobenzyl)-2,3-dihydroisoindol-1-one], in test [4] (setting [8]), the IC50 worked out at 0.402 ± 0.009 µM.
As to `O=C1c2ccccc2C(OCC2(CO)CC2)(c2ccc(Cl)cc2)N1Cc1ccc(Cl)cc1` (stereo not drawn) [NU8416, 2-(4-chlorobenzyl)-3-(4-chlorophenyl)-3-((1-(hydroxymethyl)cyclopropyl)methoxy)isoindolin-1-one], the half-maximal inhibitory concentration (IC50) in test [4] (Table 4, read-out: MDM2 IC50) was found to be 2.31 ± 0.56 µM.
`O=C1c2ccccc2C(OCC=CCO)(c2ccc(Cl)cc2)N1Cc1ccc([N+](=O)[O-])cc1` (stereo not drawn) [NU8351, 3-(4-Chlorophenyl)-3-(4-hydroxybut-2-enyloxy)-2-(4-nitrobenzyl)-2,3-dihydroisoindol-1-one]: the 50% inhibitory concentration (IC50) in test [4] (setting [8]) came to 0.405 ± 0.01 µM.
Same read-out and setting: in the case of `O=C1c2ccccc2C(OC[C@H]2CC[C@H](CO)CC2)(c2ccc(Cl)cc2)N1Cc1ccc([N+](=O)[O-])cc1` (stereo partly drawn) [NU8358, 3-(4-Chlorophenyl)-3-(4-hydroxymethylcyclohexylmethoxy)-2-(4-nitrobenzyl)-2,3-dihydroisoindol-1-one] it was 0.582 ± 0.075 µM.
